The record followed here is ChEMBL document CHEMBL5104166, “Lead optimization of cathepsin K inhibitors for the treatment of Osteoarthritis” (Bioorg Med Chem Lett, 2022).

The target of data set [1] is T1, Cathepsin K (Homo sapiens, UniProt P43235).
T1 sequence (P43235 whole entry): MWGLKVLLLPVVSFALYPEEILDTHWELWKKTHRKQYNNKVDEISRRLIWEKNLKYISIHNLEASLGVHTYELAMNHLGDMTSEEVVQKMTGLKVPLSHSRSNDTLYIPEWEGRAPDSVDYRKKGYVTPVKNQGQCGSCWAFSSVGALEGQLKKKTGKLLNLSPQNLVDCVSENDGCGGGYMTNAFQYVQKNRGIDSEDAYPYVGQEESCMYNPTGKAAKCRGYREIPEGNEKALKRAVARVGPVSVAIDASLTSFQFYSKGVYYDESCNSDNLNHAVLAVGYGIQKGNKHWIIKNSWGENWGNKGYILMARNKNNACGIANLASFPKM
Kind of data set: Inhibition of human Cathepsin K.

The species named for another data set is Homo sapiens. Kind of data set: Selectivity ratio of IC50 for Cathepsin F (unknown origin) to IC50 for Cathepsin K (unknown origin).
In data set [2] the target is Cathepsin K (Homo sapiens, UniProt P43235). Put plainly: Inhibition of humanized-rabbit Cathepsin K.
The nature of data set [3]: Intrinsic clearance in rat liver microsomes. The data set is classed as ADME, Microsome. The settings on record: read-out: CLH. (Liver microsomes are a subcellular fraction often used to study metabolism.)
Data set [4] concerns the target Cathepsin (L and K) (Homo sapiens) (UniProt P43235+P07711). Put plainly: Selectivity ratio of IC50 for Cathepsin L (unknown origin) to IC50 for Cathepsin K (unknown origin). The data set is classed as protein assay.
Data set [5] deals with Cathepsin (B and K) (Homo sapiens) (UniProt P43235+P07858). Kind of data set: Selectivity ratio of IC50 for Cathepsin B (unknown origin) to IC50 for Cathepsin K (unknown origin). The data set is classed as protein assay.
Data set [6] has as its target Cathepsin (S and K) (Homo sapiens) (UniProt P25774+P43235). Put plainly: Selectivity ratio of IC50 for Cathepsin S (unknown origin) to IC50 for Cathepsin K (unknown origin). The data set is classed as protein assay.
Data set [7] deals with Cathepsin (V and K) (Homo sapiens) (UniProt P43235+O60911). Kind of data set: Selectivity ratio of IC50 for Cathepsin V (unknown origin) to IC50 for Cathepsin K (unknown origin). The data set is classed as protein assay.
A short description of data set [8]: Clearance in rat. The data set is classed as ADME. The following applies: in vivo.
Data set [9] can be described thus: Clearance in dog. The data set is classed as ADME, Canis lupus familiaris. The settings on record: in vivo.
A short description of data set [10]: Clearance in rhesus monkey. The data set is classed as ADME, Macaca mulatta. The settings on record: in vivo.
Data set [11] is described as follows: Half life in rat. The data set is classed as ADME. The following applies: in vivo.
A short description of data set [12]: Half life in dog. The data set is classed as ADME, Canis lupus familiaris. The following applies: in vivo.
A short description of data set [13]: Half life in rhesus monkey. The data set is classed as ADME, Macaca mulatta. The following applies: in vivo.
Data set [14] in a line: Oral bioavailability in rat. The data set is classed as ADME, organism-based. The settings on record: in vivo.
Data set [15] in a line: Oral bioavailability in dog. The data set is classed as ADME, organism-based, Canis lupus familiaris. The settings on record: in vivo.
The nature of data set [16]: Oral bioavailability in rhesus monkey. The settings on record: in vivo. The data set is classed as ADME, organism-based, Macaca mulatta.
Data set [17] is described as follows: Plasma protein binding in dog assessed as unbound fraction at 15 mg/kg, po for 4 days. The data set is classed as ADME, organism-based, Canis lupus familiaris. The settings on record: time 4 day.
Data set [18] in a line: Plasma concentration in dog at 15 mg/kg, po for 4 days. The settings on record: time 4 day. The data set is classed as ADME, organism-based, Canis lupus familiaris.
Data set [19] is described as follows: Unbound plasma concentration in dog at 15 mg/kg, po for 4 days. The data set is classed as ADME, organism-based, Canis lupus familiaris. The following applies: in vivo, 96 h, time 4 day.
Data set [20] in a line: Drug concentration in dog cartilage at 15 mg/kg, po for 4 days. The data set is classed as ADME, organism-based, Canis lupus familiaris, Cartilage tissue. The settings on record: time 4 day, read-out: Ct.
The nature of data set [21]: Unbound drug concentration in dog cartilage at 15 mg/kg, po for 4 days. The data set is classed as ADME, organism-based, Canis lupus familiaris, Cartilage tissue. The settings on record: in vivo, 96 h, time 4 day.
For data set [22], the system named is Canis familiaris. Kind of data set: Anti-osteoarthritic activity in dog assessed as reduction in uCTX-1 level at 0.03 mg/kg, po for 4 days (reference value: 26.9%). The settings on record: Canis lupus familiaris, 96 h, time 4 day. The data set is classed as functional.
The subject of data set [23] is Canis familiaris. Put plainly: Anti-osteoarthritic activity in dog assessed as reduction in uCTX-1 level at 0.1 mg/kg, po for 4 days (reference value: 26.9%). The data set is classed as functional. The settings on record: Canis lupus familiaris, 96 h, time 4 day.
For data set [24], the system named is Canis familiaris. Put plainly: Anti-osteoarthritic activity in dog assessed as reduction in uCTX-1 level at 0.3 mg/kg, po for 4 days (reference value: 26.9%). The data set is classed as functional. The following applies: Canis lupus familiaris, 96 h, time 4 day.
In data set [25] the test system is Canis familiaris. Kind of data set: Anti-osteoarthritic activity in dog assessed as reduction in uCTX-1 level at 15 mg/kg, po for 4 days (reference value: 26.9%). The data set is classed as functional. The settings on record: Canis lupus familiaris, 96 h, time 4 day.

The IC50 is the concentration needed to halve the response being measured. In general, clearance refers to a measure of how efficiently the substance is removed, as volume per time. A word on the half-life: it is how long it takes for the measured level to halve. What is called bioavailability is the share of a dose that reaches the circulation, judged against a reference dose that is usually intravenous. As usually defined, the fraction unbound is the share of the substance not bound to proteins or other matrix. As a reminder, the inhibition in vivo is the drop in the measured response relative to a control, in per cent.

Cathepsin (V and K) (Homo sapiens), sequence (O60911 whole entry, looked up, one chain of several): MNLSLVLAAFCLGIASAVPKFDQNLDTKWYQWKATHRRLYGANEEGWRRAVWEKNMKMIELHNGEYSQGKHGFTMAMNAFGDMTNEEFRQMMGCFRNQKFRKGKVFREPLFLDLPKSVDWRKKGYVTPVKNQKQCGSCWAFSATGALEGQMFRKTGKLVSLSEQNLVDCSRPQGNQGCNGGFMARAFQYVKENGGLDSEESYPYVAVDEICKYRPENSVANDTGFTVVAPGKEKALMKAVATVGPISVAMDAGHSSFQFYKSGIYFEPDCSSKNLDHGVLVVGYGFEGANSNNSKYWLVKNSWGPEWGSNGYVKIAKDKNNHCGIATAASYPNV
Cathepsin (L and K) (Homo sapiens), sequence (P07711 whole entry, looked up, one chain of several): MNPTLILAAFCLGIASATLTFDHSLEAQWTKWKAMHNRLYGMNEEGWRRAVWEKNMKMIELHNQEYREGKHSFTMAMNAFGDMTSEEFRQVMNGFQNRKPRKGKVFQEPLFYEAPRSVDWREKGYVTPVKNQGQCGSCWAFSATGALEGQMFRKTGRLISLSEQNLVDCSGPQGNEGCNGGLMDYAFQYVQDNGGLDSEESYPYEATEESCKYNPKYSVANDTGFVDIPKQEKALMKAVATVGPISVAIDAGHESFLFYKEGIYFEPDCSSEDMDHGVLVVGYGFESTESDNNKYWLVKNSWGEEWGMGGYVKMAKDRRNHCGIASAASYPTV
Cathepsin (S and K) (Homo sapiens), sequence (P25774 whole entry, looked up, one chain of several): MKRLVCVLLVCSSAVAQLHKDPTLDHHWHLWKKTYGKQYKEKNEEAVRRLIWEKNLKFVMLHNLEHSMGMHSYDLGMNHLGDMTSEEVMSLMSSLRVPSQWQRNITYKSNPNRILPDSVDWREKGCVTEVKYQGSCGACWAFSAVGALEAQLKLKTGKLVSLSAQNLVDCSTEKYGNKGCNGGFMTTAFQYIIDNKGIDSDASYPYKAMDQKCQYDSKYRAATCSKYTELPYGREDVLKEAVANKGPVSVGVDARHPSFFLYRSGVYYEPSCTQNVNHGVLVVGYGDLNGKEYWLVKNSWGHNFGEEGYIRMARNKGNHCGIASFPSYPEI

On to `N#CC1(NC(=O)[C@@H]2CC(F)(F)CC[C@H]2c2nn(CC(F)(F)F)cc2-c2ccc(N3CCS(=O)(=O)CC3)cc2)CC1`, for which the IC50 on Cathepsin K [1] worked out at 0.7 nM. Also, the Ratio IC50 in the data set listed under Homo sapiens worked out at 380.
In the case of `N#CC1(NC(=O)[C@@H]2CCCC[C@H]2c2nn(CC3CC3)cc2-c2ccc(N3CCS(=O)(=O)CC3)cc2)CC1`, 5.3 nM corresponded to half-maximal inhibition at Cathepsin K [1] (IC50). The Ratio IC50 in the data set filed under Homo sapiens worked out at 1180.
At Cathepsin K [2], `N#CC1(NC(=O)[C@@H]2CC(Cl)(Cl)CC[C@H]2c2nn(CC(F)(F)F)cc2-c2ccc(C(=O)N3CCOCC3)cc2)CC1` registered an IC50 of 1 nM. Besides, the Ratio IC50 in the data set listed under Homo sapiens was 246.
At Cathepsin K [1], `COc1cccc(-n2cc(-c3ccc(N4CCS(=O)(=O)CC4)cc3)c([C@@H]3CCCC[C@H]3C(=O)NC3(C#N)CC3)n2)c1` displayed an IC50 of 0.7 nM. Moreover, the Ratio IC50 in the data set filed under Homo sapiens was 716. In addition, in data set [3], the CLint scaled is 244 mL/min/kg.
As for `N#CC1(NC(=O)[C@@H]2CCCC[C@H]2c2nn(CC(F)(F)F)cc2-c2ccc(N3CCS(=O)(=O)CC3)cc2)CC1`, the IC50 against Cathepsin K [1] came to 6.9 nM. In the data set listed under Homo sapiens, the Ratio IC50 was 1280.
Take `N#CC1(NC(=O)[C@@H]2CC(F)(F)CC[C@H]2c2nn(-c3ccc(F)cc3)cc2-c2ccc(N3CCS(=O)(=O)CC3)cc2)CC1`: the IC50 on Cathepsin K [2] was 0.5 nM. Moreover, the Ratio IC50 in the data set filed under Homo sapiens came to 50. Also, the CLint scaled in data set [3] is under 30 mL/min/kg.
With `N#CC1(NC(=O)[C@@H]2CCCC[C@H]2c2oc(-c3ccc(F)cc3)nc2-c2ccc(N3CCS(=O)(=O)CC3)cc2)CC1`, the IC50 at Cathepsin K [1] worked out at 0.5 nM. Besides, the Ratio IC50 is over 20000 in [4]; over 20000 in data set [5]; over 20000 in data set [6]; 1460 in the data set filed under Homo sapiens; over 20000 in data set [7]. Further, the CLint scaled in data set [3] is under 30 mL/min/kg. Also, the clearance in data set [8] turned out to be 13 mL/min/kg; in data set [9] it was 3.1 mL/min/kg; in data set [10], 18.5 mL/min/kg. Moreover, the figures for the half-life in data set [11], in [12] and in [13] were 1.5 h, 4.1 h and 2.3 h, respectively. Further, the bioavailability in [14] came to 33%; in data set [15], 38%; in data set [16], 55%. Moreover, the fraction unbound at 96 h in [17] was determined as 0.047. The concentration at 96 h worked out at 3980 nM in data set [18] and 220 nM in data set [20]. Further, the “Cp(f)” value in [19] was found to be 190 nM. For the same compound, the “Drug uptake(free)” value in data set [21] was 0.21 µM. In the data set on Canis familiaris [22], the inhibition in vivo at 0.03 mg/kg worked out at 4.5%. Also, in the data set on Canis familiaris [23], the inhibition in vivo at 0.1 mg/kg amounted to 47.7%. In addition, the inhibition in vivo at 0.3 mg/kg in the data set with Canis familiaris [24] amounted to 81.1%. In the data set on Canis familiaris [25], the inhibition in vivo at 15 mg/kg was found to be 91.4%.
As for `N#CC1(NC(=O)[C@@H]2CCCC[C@H]2c2nn(-c3ccc(F)cc3)cc2-c2ccc(N3CCS(=O)(=O)CC3)cc2)CC1`, the IC50 against Cathepsin K [1] was found to be 0.5 nM. Also, the Ratio IC50 in the data set listed under Homo sapiens worked out at 1000. Moreover, the CLint scaled in [3] worked out at 40.5 mL/min/kg.
The compound `CS(=O)(=O)N1CC(c2ccc(-c3cn(CC(F)(F)F)nc3[C@@H]3CCC(F)(F)C[C@H]3C(=O)NC3(C#N)CC3)cc2)C1` yielded an IC50 against Cathepsin K [2] of 0.6 nM. Further, the Ratio IC50 in the data set filed under Homo sapiens is 82.
Taken in the same sequence, the figures for `N#CC1(NC(=O)[C@@H]2CC(Cl)(Cl)CC[C@H]2c2nn(CC(F)(F)F)cc2-c2ccc(N3CCS(=O)(=O)CC3)cc2)CC1` were 0.5 nM and 314.
`N#CC1(NC(=O)[C@@H]2CCCC[C@H]2c2nc(-c3ccc(F)cc3)sc2-c2ccc(N3CCS(=O)(=O)CC3)cc2)CC1` yielded an IC50 at Cathepsin K [1] of 0.6 nM. The Ratio IC50 in the data set listed under Homo sapiens turned out to be 1430. For the same compound, the CLint scaled in data set [3] turned out to be 55.9 mL/min/kg.
At Cathepsin K [2], `N#CC1(NC(=O)[C@@H]2CC(F)(F)CC[C@H]2c2nn(CC(F)(F)F)cc2-c2ccc(-c3ncco3)cc2)CC1` came in with an IC50 of 1 nM. Besides, the Ratio IC50 in the data set filed under Homo sapiens was found to be 62.
`CS(=O)(=O)c1ccc(-c2cn(CC(F)(F)F)nc2[C@@H]2CCC(Cl)(Cl)C[C@H]2C(=O)NC2(C#N)CC2)cc1`: the concentration for half-maximal inhibition (IC50) against Cathepsin K [1] came out at 1.8 nM. Further, the Ratio IC50 in [4] was 1710; in data set [5] it was 5560; in [6] it was 1360; in the data set listed under Homo sapiens it was 40; in data set [7], 714.
